Experimental data taken from the supplement of paper PMC10307832.

Assays:
Test in all cases: relative viability (nuclei count vs DMSO), 5 days (fraction); higher = more cells survive
NCI-H23 = test system: NCI-H23
Procedure, shortened: (§1)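 Five library-drug doses in √10 steps were combined with a fixed anchor-drug dose, or a single drug was given alone, by pin tool to lung cancer cell lines in 1536-well plates the day after seeding. Nuclei were stained and counted after 5 days. Relative viability is the nuclei count in treated wells over that in vehicle wells, taken as the median of duplicate plates.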

NCI-H358 = test system: NCI-H358
Procedure, shortened: as §1

NCI-H1792 = test system: NCI-H1792
Procedure, shortened: as §1

SK-MES-1 = test system: SK-MES-1
Procedure, shortened: as §1

NCI-H1793 = test system: NCI-H1793
Procedure, shortened: as §1

LC-2-ad = test system: LC-2-ad
Procedure, shortened: as §1

NCI-H1395 = test system: NCI-H1395
Procedure, shortened: as §1

NCI-H2023 = test system: NCI-H2023
Procedure, shortened: as §1

NCI-H650 = test system: NCI-H650
Procedure, shortened: as §1

PC-14 = test system: PC-14
Procedure, shortened: as §1

COR-L23 = test system: COR-L23
Procedure, shortened: as §1

NCI-H2009 = test system: NCI-H2009
Procedure, shortened: as §1

NCI-H2347 = test system: NCI-H2347
Procedure, shortened: as §1

201T = test system: 201T
Procedure, shortened: as §1

HCC-15 = test system: HCC-15
Procedure, shortened: as §1

NCI-H1915 = test system: NCI-H1915
Procedure, shortened: as §1

NCI-H1437 = test system: NCI-H1437
Procedure, shortened: as §1

EMC-BAC-2 = test system: EMC-BAC-2
Procedure, shortened: as §1

HCC-366 = test system: HCC-366
Procedure, shortened: as §1

COR-L 105 = test system: COR-L 105
Procedure, shortened: as §1

NCI-H1755 = test system: NCI-H1755
Procedure, shortened: as §1

Cc1csc(=NC2CCCCC2)n1/N=C/c1ccc(O)c(O)c1O [MIM1] + C[C@]1(O)C[C@@H](c2nc(-c3ccc4ccc(-c5ccccc5)nc4c3)c3c(N)nccn32)C1 [Linsitinib] (partner 1 µM)
relative viability (NCI-H23; first compound 0.2 µM): 0.553
relative viability (NCI-H23; first compound 2 µM): 0.488
relative viability (NCI-H23; first compound 6.325 µM): 0.58
relative viability (NCI-H23; first compound 20 µM): 0.215
relative viability (NCI-H358; first compound 0.2 µM): 0.703
relative viability (NCI-H358; first compound 0.6325 µM): 0.651
relative viability (NCI-H358; first compound 2 µM): 0.694
relative viability (NCI-H358; first compound 6.325 µM): 0.324
relative viability (NCI-H358; first compound 20 µM): 0.341
relative viability (NCI-H1792; first compound 0.2 µM): 0.551
relative viability (NCI-H1792; first compound 0.6325 µM): 0.438
relative viability (NCI-H1792; first compound 2 µM): 0.481
relative viability (NCI-H1792; first compound 6.325 µM): 0.383
relative viability (NCI-H1792; first compound 20 µM): 0.503
relative viability (SK-MES-1; first compound 0.2 µM): 0.988
relative viability (SK-MES-1; first compound 0.6325 µM): 0.988
relative viability (SK-MES-1; first compound 2 µM): 1.02
relative viability (SK-MES-1; first compound 6.325 µM): 0.853
relative viability (SK-MES-1; first compound 20 µM): 0.848
relative viability (NCI-H1793; first compound 0.2 µM): 0.799
relative viability (NCI-H1793; first compound 0.6325 µM): 0.902
relative viability (NCI-H1793; first compound 2 µM): 0.809
relative viability (NCI-H1793; first compound 6.325 µM): 0.925
relative viability (NCI-H1793; first compound 20 µM): 1.02
relative viability (LC-2-ad; first compound 0.2 µM): 0.794
relative viability (LC-2-ad; first compound 0.6325 µM): 0.744
relative viability (LC-2-ad; first compound 2 µM): 0.856
relative viability (LC-2-ad; first compound 6.325 µM): 0.547
relative viability (LC-2-ad; first compound 20 µM): 0.132
relative viability (NCI-H1395; first compound 0.2 µM): 0.927
relative viability (NCI-H1395; first compound 0.6325 µM): 1.03
relative viability (NCI-H1395; first compound 2 µM): 1.07
relative viability (NCI-H1395; first compound 6.325 µM): 0.606
relative viability (NCI-H1395; first compound 20 µM): 0.355
relative viability (NCI-H2023; first compound 0.2 µM): 0.625
relative viability (NCI-H2023; first compound 0.6325 µM): 0.739
relative viability (NCI-H2023; first compound 2 µM): 0.615
relative viability (NCI-H2023; first compound 6.325 µM): 0.482
relative viability (NCI-H2023; first compound 20 µM): 0.443
relative viability (NCI-H650; first compound 0.2 µM): 0.964
relative viability (NCI-H650; first compound 0.6325 µM): 0.843
relative viability (NCI-H650; first compound 2 µM): 0.938
relative viability (NCI-H650; first compound 6.325 µM): 0.824
relative viability (NCI-H650; first compound 20 µM): 0.234
relative viability (PC-14; first compound 0.2 µM): 0.893
relative viability (PC-14; first compound 0.6325 µM): 0.932
relative viability (PC-14; first compound 2 µM): 0.956
relative viability (PC-14; first compound 6.325 µM): 0.719
relative viability (PC-14; first compound 20 µM): 0.499
relative viability (COR-L23; first compound 0.2 µM): 0.77
relative viability (COR-L23; first compound 0.6325 µM): 1.12
relative viability (COR-L23; first compound 2 µM): 1.01
relative viability (COR-L23; first compound 6.325 µM): 0.813
relative viability (COR-L23; first compound 20 µM): 0.498
relative viability (NCI-H2009; first compound 0.2 µM): 1.25
relative viability (NCI-H2009; first compound 0.6325 µM): 1.18
relative viability (NCI-H2009; first compound 2 µM): 1.18
relative viability (NCI-H2009; first compound 6.325 µM): 1.06
relative viability (NCI-H2009; first compound 20 µM): 1.05
relative viability (NCI-H2347; first compound 0.2 µM): 0.985
relative viability (NCI-H2347; first compound 0.6325 µM): 0.994
relative viability (NCI-H2347; first compound 2 µM): 0.98
relative viability (NCI-H2347; first compound 6.325 µM): 0.736
relative viability (NCI-H2347; first compound 20 µM): 0.656
relative viability (201T; first compound 0.2 µM): 1.02
relative viability (201T; first compound 0.6325 µM): 1.04
relative viability (201T; first compound 2 µM): 1.04
relative viability (201T; first compound 6.325 µM): 1.03
relative viability (201T; first compound 20 µM): 1.25
relative viability (HCC-15; first compound 0.2 µM): 0.901
relative viability (HCC-15; first compound 0.6325 µM): 0.808
relative viability (HCC-15; first compound 2 µM): 0.941
relative viability (HCC-15; first compound 6.325 µM): 0.476
relative viability (HCC-15; first compound 20 µM): 0.211
relative viability (NCI-H1915; first compound 0.2 µM): 1.09
relative viability (NCI-H1915; first compound 0.6325 µM): 1.03
relative viability (NCI-H1915; first compound 2 µM): 1.08
relative viability (NCI-H1915; first compound 6.325 µM): 0.978
relative viability (NCI-H1915; first compound 20 µM): 0.872
relative viability (NCI-H1437; first compound 0.2 µM): 0.967
relative viability (NCI-H1437; first compound 0.6325 µM): 0.985
relative viability (NCI-H1437; first compound 2 µM): 1.05
relative viability (NCI-H1437; first compound 6.325 µM): 0.507
relative viability (NCI-H1437; first compound 20 µM): 0.151
relative viability (EMC-BAC-2; first compound 0.2 µM): 0.776
relative viability (EMC-BAC-2; first compound 0.6325 µM): 0.822
relative viability (EMC-BAC-2; first compound 2 µM): 0.784
relative viability (EMC-BAC-2; first compound 6.325 µM): 0.757
relative viability (EMC-BAC-2; first compound 20 µM): 0.328
relative viability (HCC-366; first compound 0.2 µM): 0.511
relative viability (HCC-366; first compound 0.6325 µM): 0.715
relative viability (HCC-366; first compound 2 µM): 0.565
relative viability (HCC-366; first compound 6.325 µM): 0.361
relative viability (HCC-366; first compound 20 µM): 0.0221
relative viability (COR-L 105; first compound 0.2 µM): 0.899
relative viability (COR-L 105; first compound 0.6325 µM): 1.04
relative viability (COR-L 105; first compound 2 µM): 0.898
relative viability (COR-L 105; first compound 6.325 µM): 0.962
relative viability (COR-L 105; first compound 20 µM): 0.796
relative viability (NCI-H1755; first compound 0.2 µM): 1.02
relative viability (NCI-H1755; first compound 0.6325 µM): 0.996
relative viability (NCI-H1755; first compound 2 µM): 1.03
relative viability (NCI-H1755; first compound 6.325 µM): 0.71
relative viability (NCI-H1755; first compound 20 µM): 0.724
